In one data set the test system is SKOV-3 cell line. In words: Antiproliferative effect against the SKOV-3 cell line (GI50, cell count). Format: cell-based, human. To be noted: for GI50: 50% cell growth inhibition, 72 hours of treatment, cell count, ND = activity not dose dependent. As for the experimental part:
(§1) SKOV-3, A2780 and A2780 CIS were cultured and maintained, as previously described,[50] at 37 °C in RPMI 1640 medium (Euroclone) supplemented with 10% fetal bovine serum (FBS; Euroclone), L-glutamine and penicillin/streptomycin (SIGMA-ALDRICH). OVCA433, HEK-293T, HeLa, HCCLM3, SK-Hep-1, MCF-7, A549 and HCT-116 cells were maintained in DMEM medium (Euroclone) containing 10% FBS (Euroclone), L-glutamine and penicillin/streptomycin (SIGMA-ALDRICH). Wi-38 cells were cultured in DMEM medium (Euroclone) supplemented with 10% FBS (Euroclone), L-glutamine and penicillin/streptomycin (SIGMA-ALDRICH), and 1% non-essential amino acids (NEAA; Euroclone). The cultures were maintained in a constant temperature incubator at 37 °C with 5% CO2. […] Once cell adhesion had been promoted, the compounds were added to the culture medium. After 72 hours of treatment, the cells were counted, and the data analyzed by linear regression. Each experiment was carried out three times in triplicate and three separate cell counts were made for each sample. […] Afterwards, the concentration range was narrowed to the relative value obtained in the first evaluation in order to obtain an accurate value.

A short description of data set [1]: Cytotoxicity against non-tumor Wi-38 cells (CC50, cell count). It is filed as cell-based. To be noted: human, Wi-38 cells (non-tumor), 50% cytotoxicity concentration, 72 hours of treatment. As for the experimental part:
as §1

The test system of a further data set is OVCA433. Description: Antiproliferative effect against OVCA433 (GI50). Format: cell-based. Conditions: Homo sapiens, 72 hours of treatment, cell count. As for the experimental part:
as §1

Another data set has as its system A2780. In words: Antiproliferative effect against A2780 (GI50). It is filed as cell-based. To be noted: Homo sapiens, 72 hours of treatment, cell count. As for the experimental part:
as §1

Data set [2] relates to shRNA to siRNA maturation (GAPDH mRNA). Description: RNAi enhancing activity (shRNA to siRNA maturation, GAPDH mRNA in HEK-293T_shGAPDH). Format: cell-based, human. Conditions: 50 μM, 48 hours. As for the experimental part:
HEK-293T_shSCR and HEK-293T_shGAPDH were treated with 50 μM of enoxacin and 33 for 48 hours before RNA extraction and expression analysis.
Lentiviral particles were produced by calcium phosphate transient transfection of HEK-293T cells with specific lentiviral plasmids (shGAPDH: TRCN0000445616 and shSCR: TRCN0000015937 from SIGMA-ALDRICH) together with the packaging plasmids (pLP1and pLP2) and the envelope plasmid pLP/VSVG. For each lentiviral plasmid one 150 mm plate of HEK293T cells was used for transfection. After 14–16 hours the medium was replaced with complete medium supplemented with 1 mM sodium butyrate (SIGMA-ALDRICH). The collection of medium containing lentiviral particles occurs 48 h and 72 h after transfection; complete medium supplemented with sodium butyrate was added after the first collection. […]
Total RNA was extracted using the Direct-zol RNA MiniPrep kit (Zymo Research) with on-column DNase treatment, according to the manufacturer's instructions. Reverse transcription was carried out with SuperScript VILO cDNA Synthesis Kit (Life Technologies) and the cDNA samples were analyzed by qRT-PCR using PowerUp SYBR Green Master Mix (Thermo Fisher Scientific). For miR-21 expression analysis total RNA was retrotranscribed using miRCURY® LNA® RT Kit (Qiagen) and the cDNA was analyzed by using miRCURY® LNA® miRNA PCR Assay (Qiagen). […]

In a further data set the test system is miR-21-5p biogenesis. In words: miR-21-5p luciferase reporter (psi-R21 / psi-CTRL) in HeLa cells. It is filed as cell-based, human. Conditions: 50 μM, 6 hours. As for the experimental part:
HeLa cells were transfected with 10 ng of psi-R21 or psi-CTRL using Lipofectamine™ 2000 (Thermo Fisher Scientific) and after 48 hours were treated with either enoxacin or 33 at 20 μM and 50 μM. After 6 hours Renilla luciferase (RLuc) and firefly luciferase (FLuc) activities were measured using the Dual-Luciferase® Reporter Assay System (Promega), following the manufacturer's instructions, and GloMax® Discover Microplate Reader (Promega).
The binding site for miR-21 was cloned into psiCHECK™-2 Vector (Promega), downstream the Renilla cDNA, by inverted PCR using the following oligonucleotides: 21MRE_FW […]; 21MRE_REV […]. The resulting construct was named psi-R21.

For a further data set, the system named is miR-21. In words: miR-21 expression in HeLa cells (qRT-PCR). It is filed as cell-based, human. Conditions: 50 μM, 6 hours. As for the experimental part:
Total RNA was extracted using the Direct-zol RNA MiniPrep kit (Zymo Research) with on-column DNase treatment, according to the manufacturer's instructions. Reverse transcription was carried out with SuperScript VILO cDNA Synthesis Kit (Life Technologies) and the cDNA samples were analyzed by qRT-PCR using PowerUp SYBR Green Master Mix (Thermo Fisher Scientific). For miR-21 expression analysis total RNA was retrotranscribed using miRCURY® LNA® RT Kit (Qiagen) and the cDNA was analyzed by using miRCURY® LNA® miRNA PCR Assay (Qiagen). The oligonucleotides used are the following: GAPDH_FW […]; GAPDH_REV […]; ATP5O_FW […]; ATP5O_REV […]; hsa-miR-21-5p miRCURY LNA miRNA PCR Assay (YP00204230); U6 snRNA (v2) miRCURY LNA miRNA PCR Assay (YP02119464).

Data set [3] deals with several cancer cell lines. On the set-up: method as in PMID 21368194. Conditions: wide panel of cancer cells; read-out: GI50 against several cancer cell lines; cited from earlier work.
The target of another data set is T1, hTopI (Homo sapiens, UniProt P11387).
T1 construct: endogenous in cells
In words: Detection of hTOP1 cleavage complexes (cleavage assay). Conditions: 100 μM. Format: cell-based. As for the experimental part:
(§2) After compound treatments, 1 × 10^6 human cells in 35 mm dish per sample were washed with 1× phosphate-buffered saline (PBS) and lysed with 600 μL of DNAzol (Invitrogen), followed by precipitation with 300 μL of 200 proof ethanol. The nucleic acids were collected, washed with 75% ethanol, resuspended in 200 μL of TE buffer, and then heated at 65 °C for 15 min, followed by shearing with sonication (40% output for 10 s pulse and 10 s rest for four times). The samples were centrifuged at 15 000 rpm for 5 min at 4 °C, and the supernatant were collected. 1 μL of each sample was removed for spectrophotometric measurement of absorbance at 260 nm to quantitate DNA content (NanoDrop). 2 μg of each sample was subjected to slot-blot for immunoblotting using anti-hTOP1 antibody (BD Pharmingen, 556597) and anti-hTOP2α antibody (Santa Cruz biotechnology, 365916).[51]

Another data set has as its target T2, hTopII (Homo sapiens, UniProt P11388).
T2 construct: endogenous in cells
In words: Detection of hTOP2α cleavage complexes (cleavage assay). Format: cell-based. Conditions: 100 μM. As for the experimental part: as §2

Structures are written as SMILES. Several values for one entry are separate records, joined by “and”; a condition that tells them apart may be missing. Equal entries are not always repeated.

T2 sequence (P11388 whole entry): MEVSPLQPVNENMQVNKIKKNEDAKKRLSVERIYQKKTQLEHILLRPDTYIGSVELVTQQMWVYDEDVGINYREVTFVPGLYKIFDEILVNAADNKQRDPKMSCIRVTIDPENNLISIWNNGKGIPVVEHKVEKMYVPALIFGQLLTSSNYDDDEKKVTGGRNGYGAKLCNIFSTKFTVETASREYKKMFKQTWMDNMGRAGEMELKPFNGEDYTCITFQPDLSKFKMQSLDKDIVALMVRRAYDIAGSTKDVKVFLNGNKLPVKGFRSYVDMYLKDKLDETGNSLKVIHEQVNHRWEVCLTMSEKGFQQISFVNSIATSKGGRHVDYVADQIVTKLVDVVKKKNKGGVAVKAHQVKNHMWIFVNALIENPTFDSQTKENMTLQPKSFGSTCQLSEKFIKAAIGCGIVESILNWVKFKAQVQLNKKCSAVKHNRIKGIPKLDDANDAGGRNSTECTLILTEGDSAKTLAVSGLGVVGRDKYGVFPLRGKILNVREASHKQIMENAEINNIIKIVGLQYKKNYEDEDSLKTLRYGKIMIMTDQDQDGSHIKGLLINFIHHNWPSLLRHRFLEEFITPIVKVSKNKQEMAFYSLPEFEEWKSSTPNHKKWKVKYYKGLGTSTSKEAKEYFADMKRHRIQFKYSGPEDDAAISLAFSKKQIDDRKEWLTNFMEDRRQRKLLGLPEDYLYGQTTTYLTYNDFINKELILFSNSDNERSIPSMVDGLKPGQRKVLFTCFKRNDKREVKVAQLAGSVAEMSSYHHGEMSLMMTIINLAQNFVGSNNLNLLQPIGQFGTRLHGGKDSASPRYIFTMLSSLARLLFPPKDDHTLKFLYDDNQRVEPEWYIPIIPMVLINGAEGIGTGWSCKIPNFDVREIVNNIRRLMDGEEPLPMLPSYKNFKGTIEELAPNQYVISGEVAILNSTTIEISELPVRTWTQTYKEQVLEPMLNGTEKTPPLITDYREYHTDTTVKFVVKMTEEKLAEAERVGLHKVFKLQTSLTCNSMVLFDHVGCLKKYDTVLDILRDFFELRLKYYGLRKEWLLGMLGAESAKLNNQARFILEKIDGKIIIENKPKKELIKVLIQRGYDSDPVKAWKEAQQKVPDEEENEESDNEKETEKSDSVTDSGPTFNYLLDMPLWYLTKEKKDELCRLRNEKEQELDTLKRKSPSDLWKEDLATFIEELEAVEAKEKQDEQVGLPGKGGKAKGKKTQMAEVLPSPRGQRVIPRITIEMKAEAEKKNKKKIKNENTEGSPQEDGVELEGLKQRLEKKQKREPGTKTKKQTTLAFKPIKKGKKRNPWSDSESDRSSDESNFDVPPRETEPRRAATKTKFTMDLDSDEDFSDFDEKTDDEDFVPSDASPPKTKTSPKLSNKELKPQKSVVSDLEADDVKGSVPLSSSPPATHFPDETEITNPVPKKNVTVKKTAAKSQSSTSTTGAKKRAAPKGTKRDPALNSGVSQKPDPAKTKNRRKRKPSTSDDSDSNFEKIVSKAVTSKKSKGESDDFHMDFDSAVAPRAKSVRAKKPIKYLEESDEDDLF
T1 sequence (P11387 whole entry): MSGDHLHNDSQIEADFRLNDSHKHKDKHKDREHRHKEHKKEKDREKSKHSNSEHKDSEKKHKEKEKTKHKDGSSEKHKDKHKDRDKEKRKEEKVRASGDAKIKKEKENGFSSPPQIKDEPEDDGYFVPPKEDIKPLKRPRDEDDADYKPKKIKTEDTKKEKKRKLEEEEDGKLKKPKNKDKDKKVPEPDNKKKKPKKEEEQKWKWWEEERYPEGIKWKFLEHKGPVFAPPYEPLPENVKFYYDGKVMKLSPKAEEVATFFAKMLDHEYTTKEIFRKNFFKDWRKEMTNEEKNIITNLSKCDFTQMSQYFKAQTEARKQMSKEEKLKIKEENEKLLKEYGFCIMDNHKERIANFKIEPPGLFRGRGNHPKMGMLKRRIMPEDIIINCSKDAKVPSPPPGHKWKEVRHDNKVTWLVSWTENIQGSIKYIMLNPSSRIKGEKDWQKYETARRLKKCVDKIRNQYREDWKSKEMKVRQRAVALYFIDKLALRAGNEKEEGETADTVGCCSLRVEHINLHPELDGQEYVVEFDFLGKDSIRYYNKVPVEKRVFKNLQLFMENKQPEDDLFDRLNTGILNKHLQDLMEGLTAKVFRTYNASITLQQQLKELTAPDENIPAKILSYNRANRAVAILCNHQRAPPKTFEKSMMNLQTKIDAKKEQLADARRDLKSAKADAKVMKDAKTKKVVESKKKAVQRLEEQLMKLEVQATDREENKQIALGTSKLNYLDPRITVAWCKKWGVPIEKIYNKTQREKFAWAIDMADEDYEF

With `CCn1cc(C(=O)O)c(=O)c2cc(F)c(N3CCNCC3)nc21` [Enoxacin, enoxacin, reference compound], the GI50 in the data set with SKOV-3 cell line (Homo sapiens, SK-OV-3, 72 h) was 125 µM; with OVCA433, 118 ± 8.89 µM; with A2780, 142 ± 8.73 µM; in data set [3], ~125 µM and 125 µM. Moreover, in data set [1], the CC50 at 72 h was determined as 216 ± 123 µM. Further, the “RNAi enhancing effect (GAPDH mRNA decrease)” value in data set [2] was “comparable”. Further, in the data set on miR-21-5p biogenesis, the “miRNA enhancing effect: Renilla luciferase activity, psi-R21 construct” value was “miRNA enhancing effect”. Moreover, in the data set on miR-21, the “miR-21 level in HeLa cells” value is “Upregulation of miR-21”.

With `Cc1c(N2CCc3ccccc3C2)c(N)cc2c(=O)c(C(=O)O)cn(C3CC3)c12` [Compound 5], the 50% growth inhibitory concentration (GI50) with SKOV-3 cell line was determined as 37.7 ± 3.38 µM; in the data set with SKOV-3 cell line (Homo sapiens, SK-OV-3, 72 h), 38 µM. In addition, the “GI50 SKOV-3, fold lower than enoxacin” value with SKOV-3 cell line (versus enoxacin) is recorded as “about 3 fold”. Half-maximal cytotoxicity in data set [1] (CC50 at 72 h) was put at 38.5 ± 29 µM. Further, on hTopI, the “trapping/inhibition of hTopI (cleavage assay)” value is “did not trap human topoisomerases”. Further, at hTopII, the “trapping/inhibition of hTopII (cleavage assay)” value was “did not trap human topoisomerases”.

The values above are taken from publication PMC11467779, “New anti-ovarian cancer quinolone derivatives acting by modulating microRNA processing machinery” (RSC Medicinal Chemistry, 2024).
